ChEMBL document CHEMBL1133250, “Antitumor promoting activities of 3-O-acyl-(-)epigallocatechins” (2000)

Key:
Format in all cases: functional
[1] = test system: Human gammaherpesvirus 4; test: In vitro assay for EBV activation in Raji cells induced by 12-O-tetradecanoylphorbol-13-acetate (TPA) at the concentration of 100 (mol ratio / 32 pmol TPA)
[2] = test system: Human gammaherpesvirus 4; test: In vitro assay for EBV activation in Raji cells induced by 12-O-tetradecanoylphorbol-13-acetate (TPA) at the concentration of 10 (mol ratio / 32 pmol TPA)
[3] = test system: Human gammaherpesvirus 4; test: In vitro assay for EBV activation in Raji cells induced by 12-O-tetradecanoylphorbol-13-acetate (TPA) at the concentration of 500 (mol ratio / 32 pmol TPA); (%Viability=>80)
[4] = test system: Human gammaherpesvirus 4; test: Tested for % viability of Rajii cells, in an in vitro assay for TPA-induced EBV activation at concentration of 10 (mol ratio / 32 pmol TPA)
[5] = test system: Human gammaherpesvirus 4; test: Tested for % viability of Rajii cells, in an in vitro assay for TPA-induced EBV activation at concentration of 1000 (mol ratio / 32 pmol TPA)
[6] = test system: Human gammaherpesvirus 4; test: Tested for % viability of Rajii cells, in an in vitro assay for TPA-induced EBV activation at concentration of 500 (mol ratio / 32 pmol TPA)
[7] = test system: Human gammaherpesvirus 4; test: Tested for % viability of Rajii cells, in an in vitro assay for TPA-induced EBV activation at concentration of 100 (mol ratio / 32 pmol TPA)
[8] = test system: Human gammaherpesvirus 4; test: In vitro assay for EBV activation in Raji cells induced by 12-O-tetradecanoylphorbol-13-acetate (TPA) at the concentration of 1000 (mol ratio / 32 pmol TPA)

CCCC(=O)O[C@@H]1Cc2c(O)cc(O)cc2O[C@@H]1c1cc(O)c(O)c(O)c1
Activation [1]: >65.1%
Activation [2]: >94.5%
Activation [3]: >33.8%
Viability [4]: >80%
Viability [5]: 60%
Viability [6]: >80%
Viability [7]: >80%
Activation [8]: 13.3%

CCCCCC(=O)O[C@@H]1Cc2c(O)cc(O)cc2O[C@@H]1c1cc(O)c(O)c(O)c1
Activation [1]: >62.4%
Activation [2]: >93.5%
Activation [3]: >30.8%
Viability [4]: >80%
Viability [5]: 60%
Viability [6]: >80%
Viability [7]: >80%
Activation [8]: 12%

O=C(Cc1ccccc1)O[C@@H]1Cc2c(O)cc(O)cc2O[C@@H]1c1cc(O)c(O)c(O)c1
Activation [1]: >67.8%
Activation [2]: >96.3%
Activation [3]: >37.9%
Viability [4]: >80%
Viability [5]: 60%
Viability [6]: >80%
Viability [7]: >80%
Activation [8]: 15.4%

CCc1ccc(C(=O)O[C@@H]2Cc3c(O)cc(O)cc3O[C@@H]2c2cc(O)c(O)c(O)c2)cc1
Activation [1]: >64.3%
Activation [2]: >93.4%
Activation [3]: >35.4%
Viability [4]: >80%
Viability [5]: 60%
Viability [6]: >80%
Viability [7]: >80%
Activation [8]: 13.2%

CCCCCCC(C)C(=O)O[C@@H]1Cc2c(O)cc(O)cc2O[C@@H]1c1cc(O)c(O)c(O)c1 (some centres undefined)
Activation [1]: >54.1%
Activation [2]: >87.5%
Activation [3]: >15.3%
Viability [4]: >80%
Viability [5]: 60%
Viability [6]: >80%
Viability [7]: >80%
Activation [8]: 5%

O=C(CCc1ccccc1)O[C@@H]1Cc2c(O)cc(O)cc2O[C@@H]1c1cc(O)c(O)c(O)c1
Activation [1]: >68.4%
Activation [2]: >96.5%
Activation [3]: >39%
Viability [4]: >80%
Viability [5]: 60%
Viability [6]: >80%
Viability [7]: >80%
Activation [8]: 17.8%

CCCCCCCCC(C)C(=O)O[C@@H]1Cc2c(O)cc(O)cc2O[C@@H]1c1cc(O)c(O)c(O)c1 (some centres undefined)
Activation [1]: >58.3%
Activation [2]: >88.9%
Activation [3]: >20.1%
Viability [4]: >80%
Viability [5]: 60%
Viability [6]: >80%
Viability [7]: >80%
Activation [8]: 7.9%

CCCCCCCCCCCCCCCC(=O)O[C@@H]1Cc2c(O)cc(O)cc2O[C@@H]1c1cc(O)c(O)c(O)c1
Activation [1]: >74.3%
Activation [2]: >100%
Activation [3]: >41.6%
Viability [4]: >80%
Viability [5]: 60%
Viability [6]: >80%
Viability [7]: >80%
Activation [8]: 22.7%
